Source: ChEMBL document CHEMBL5352417, “Design, synthesis, and biological evaluation of aromatic tertiary amine derivatives as selective butyrylcholinesterase inhibitors for the treatment of Alzheimer's disease” (Eur J Med Chem, 2022)
Active and inactive are the calls of the source. The calls are words filed in the database; no cut-off is given here.

How the values were obtained:
[1] = biological target: Cholinesterase (Equus caballus) (UniProt P81908); assay: Inhibition of horse serum BuChE using butyrylthiocholine iodide as substrate at <10 uM measured for 3 mins by Ellman's method relative to control; format: cell-free
Sequence of Cholinesterase (Equus caballus) (P81908 whole entry): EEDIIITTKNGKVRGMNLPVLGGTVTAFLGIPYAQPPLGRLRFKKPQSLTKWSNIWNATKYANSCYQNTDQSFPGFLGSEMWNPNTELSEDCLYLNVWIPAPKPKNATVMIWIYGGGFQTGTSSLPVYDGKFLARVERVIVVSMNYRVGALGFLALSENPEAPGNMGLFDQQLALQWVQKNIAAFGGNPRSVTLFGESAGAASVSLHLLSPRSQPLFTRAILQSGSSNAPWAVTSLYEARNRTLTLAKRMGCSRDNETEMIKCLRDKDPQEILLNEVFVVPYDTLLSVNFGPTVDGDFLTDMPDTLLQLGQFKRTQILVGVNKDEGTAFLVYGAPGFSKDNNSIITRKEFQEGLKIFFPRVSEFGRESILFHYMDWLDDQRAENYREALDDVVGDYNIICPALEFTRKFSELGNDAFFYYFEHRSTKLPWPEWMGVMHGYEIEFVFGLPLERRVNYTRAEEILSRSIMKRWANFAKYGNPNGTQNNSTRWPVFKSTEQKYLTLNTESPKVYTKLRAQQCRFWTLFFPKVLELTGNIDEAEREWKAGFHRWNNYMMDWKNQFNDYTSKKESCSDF

[2] = test system: Mus musculus; assay: Antialzheimer activity against amyloid beta (1 to 42)-induced mouse model of cognitive dysfunction assessed as latency time at 15 mg/kg, po measured for 14 days by Morris Water maze method; format: functional, ICR; details: time 14 day
[3] = Effective permeability of compound at 25 ug/ml incubated for 18 hrs by PAMPA-BBB assay; format: ADME; details: dose 25 µg/ml, read-out: Peff
[4] = Neurotoxicity against mouse HT-22 cells incubated for 24 hrs by MTT assay; format: toxicity, cell-based; details: read-out: LD50
[5] = biological target: Acetylcholinesterase (Electrophorus electricus) (UniProt O42275); assay: Inhibition of electric eel AchE using acetylthiocholine iodide as substrate at <10 uM measured for 3 mins by Ellman's method relative to control
Sequence of Acetylcholinesterase (Electrophorus electricus) (O42275 24-633 limits assumed): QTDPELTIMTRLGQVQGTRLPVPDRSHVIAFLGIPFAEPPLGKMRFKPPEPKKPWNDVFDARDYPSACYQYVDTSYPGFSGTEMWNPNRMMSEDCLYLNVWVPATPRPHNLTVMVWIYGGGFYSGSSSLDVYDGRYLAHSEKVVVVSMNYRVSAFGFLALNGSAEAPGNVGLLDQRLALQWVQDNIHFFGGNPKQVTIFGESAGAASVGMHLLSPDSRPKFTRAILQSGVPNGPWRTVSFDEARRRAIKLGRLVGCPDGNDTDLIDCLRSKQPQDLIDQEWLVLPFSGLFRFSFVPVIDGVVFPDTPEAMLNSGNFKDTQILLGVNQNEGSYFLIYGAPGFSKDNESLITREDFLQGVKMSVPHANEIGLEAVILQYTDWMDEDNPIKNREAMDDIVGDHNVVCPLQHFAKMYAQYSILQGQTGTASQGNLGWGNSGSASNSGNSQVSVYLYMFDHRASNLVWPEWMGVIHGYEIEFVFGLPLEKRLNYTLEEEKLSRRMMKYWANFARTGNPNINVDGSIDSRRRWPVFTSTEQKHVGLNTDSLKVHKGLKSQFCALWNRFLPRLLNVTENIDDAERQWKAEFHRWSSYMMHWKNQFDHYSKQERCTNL

[6] = test system: Mus musculus; assay: Antialzheimer activity against amyloid beta (1 to 42)-induced mouse model of cognitive dysfunction assessed as reaching target platform at 15 mg/kg, po measured for 14 days by Morris Water maze method; format: functional, organism-based; details: ICR, time 14.0 day
[7] = biological target: T1, Cholinesterase (Homo sapiens, UniProt P06276); assay: Non-competitive inhibition of BChE (unknown origin) using butyrylthiocholine iodide as substrate upto 400 nM measured for 5 mins by Lineweaver-Burk plot analysis
T1 sequence (P06276 whole entry): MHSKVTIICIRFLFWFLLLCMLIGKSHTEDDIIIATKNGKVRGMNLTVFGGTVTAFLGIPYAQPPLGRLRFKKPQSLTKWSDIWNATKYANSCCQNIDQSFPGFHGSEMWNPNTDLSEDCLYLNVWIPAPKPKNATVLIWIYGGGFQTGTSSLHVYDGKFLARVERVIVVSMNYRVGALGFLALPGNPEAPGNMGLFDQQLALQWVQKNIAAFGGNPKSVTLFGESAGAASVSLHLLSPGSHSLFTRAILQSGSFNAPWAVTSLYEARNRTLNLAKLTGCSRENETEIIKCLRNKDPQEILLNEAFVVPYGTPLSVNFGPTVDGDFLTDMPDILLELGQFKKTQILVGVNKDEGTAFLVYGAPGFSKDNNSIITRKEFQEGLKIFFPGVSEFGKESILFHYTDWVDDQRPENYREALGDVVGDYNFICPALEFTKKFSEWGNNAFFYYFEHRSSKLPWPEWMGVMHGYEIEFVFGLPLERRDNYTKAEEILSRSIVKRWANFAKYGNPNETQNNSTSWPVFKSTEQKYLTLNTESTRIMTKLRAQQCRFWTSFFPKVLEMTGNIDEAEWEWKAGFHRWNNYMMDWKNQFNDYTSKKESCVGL

[8] = Neurotoxicity against mouse BV-2 cells incubated for 24 hrs by MTT assay; format: toxicity, cell-based; details: read-out: LD50
[9] = Acute toxicity in fasted ICR mouse assessed as change in animal growth at 1 g/kg, po administered on day 1 followed by food supply after 2 hrs post compound administration measured after few days after first day administration; format: organism-based; details: in vivo, 1000 mg/kg
[10] = Acute toxicity in fasted ICR mouse assessed as animal death at 1 g/kg, po followed by food supply after 2 hrs post compound administration measured for 14 days; format: organism-based; details: in vivo, 1000 mg/kg, 336 h, time 14 day
[11] = Acute toxicity in fasted ICR mouse assessed as obvious toxicity at 1 g/kg, po followed by food supply after 2 hrs post compound administration measured for 14 days; format: organism-based; details: in vivo, 1000 mg/kg, 336 h, time 14 day
[12] = biological target: T1, Cholinesterase; assay: Inhibition of human BChE using butyrylthiocholine iodide as substrate measured for 3 mins by Ellman's method
[13] = Neurotoxicity against rat PC12 cells incubated for 24 hrs by MTT assay; format: toxicity, cell-based, PC-12; details: read-out: LD50
[14] = Neurotoxicity against human SH-SY5Y cells assessed as survival rate incubated for 24 hrs by MTT assay relative to control; format: toxicity, cell-based; set-up: concentration or dose not given beside the values; details: read-out: Survival
[15] = test system: SH-SY5Y; assay: Neuroprotective activity against amyloid beta (1 to 42)-induced injury in human SH-SY5Y cells assessed as cell viability by MTT assay; format: functional, cell-based; details: dose 0.5-50 µM
[16] = biological target: Cholinesterase (Equus caballus, UniProt P81908); assay: Inhibition of horse serum BuChE using butyrylthiocholine iodide as substrate measured for 3 mins by Ellman's method; format: cell-free
Sequence of Cholinesterase (Equus caballus, UniProt P81908) (P81908 whole entry): as the sequence (P81908 whole entry) above

Cc1ccccc1NC(=O)CN(Cc1ccc2ccccc2c1)CC(C)C
inhibition [1]: 94.3% | Time [2]: 11.4 s | Papp at 18 h, 25 ug/ml [3]: 13.1 ×10⁻⁶ cm/s | CC50 at 24 h [4]: 18.9 µM | inhibition [5]: 22.2% | Activity [6]: Active | inhibition [7]: Active | CC50 at 24 h [8]: 39.3 µM | Activity [9]: Toxic | Activity [10]: Non-Toxic | Activity [11]: Non-Toxic | IC50 [12]: 0.016 µM | CC50 at 24 h [13]: 78.8 µM | viability at 24 h [14]: 47.8% | Activity [15]: Dose-Dependent Effect | IC50 [16]: 0.22 µM
